Laboratory results reported in patent US11384078B2, “5,6-fused-bicyclic compounds and compositions for the treatment of parasitic diseases” (NOVARTIS AG, priority 2017, dated 2022).
Read-outs that look alike come from different tables or passages of the source.

Legend:
Type in all cases: cell-based
[1] = system: Trypanosoma brucei brucei (Lister 427) strain; experiment: Assay for growth inhibition against Trypanosoma brucei brucei (Cell TiterGlo ATP luminescence); conditions: T. brucei brucei (Lister 427), read-out: T. Brucei (HAT) EC50
How it was run: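 Growth read-out is cellular ATP by CellTiter-Glo luminescence, measured 30 min after reagent addition, following 2-day incubation at 37 °C in CO2. Parasites (10,000/mL, HMI-9 plus 10% FBS and 10% serum plus) faced 10 threefold dilutions in duplicate; IC50 taken as 50% growth inhibition versus untreated.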

[2] = system: L. donovani HU3 strain in mouse peritoneal macrophages; experiment: Assay for inhibition of parasitemia of Leishmania donovani in mouse macrophages (SYBR Green nuclei count, high-content imaging); conditions: Leishmania donovani, Peritoneal macrophage, L. donovani in mouse peritoneal macrophages; read-out: L. donovani in Mouse Macrophages EC50
Excerpt: Assay for Inhibition of Parasitemia of Leishmania donovani in Mouse Macrophages
The assay measures the increase in the parasite number in the assayed plate well using a DNA intercalating dye, SYBR Green I® dye (INVITROGEN) to stain Leishmania cell nuclei. L. donovani HU3 strain is propagated by infecting BALB/c mice through tail vein injection with 10^7 Leishmania parasites. Infected mice are allowed to develop infection during 9-11 weeks post-infection. During this time, the parasites accumulate in the infected mouse spleens to large numbers, and the infected mice serve as the source of parasites for the in vitro measurement of compound efficacies. To assay a compound for anti-leishmanial activity, peritoneal macrophages isolated from non-infected BALB/c mice are seeded into 384-well plates at density 2×10^4 macrophages per well in […] of medium (RPM11640, 10% fetal serum albumin, 10 mM HEPES, 1 mM sodium pyruvate, 1% Pen/Strep). Subsequently, the seeded plates are placed into an incubator set to maintain 37° C. temperature and atmosphere with 5% CO2.
The next day, Leishmania parasites are isolated from the spleens of mice infected for 9-11 weeks and 4×10^5 isolated parasites in […] of the above media are added to each plate well. Plates are then returned into incubators and infection is allowed to proceed for 24 hours. After the infection of macrophages is completed, […] of compounds of the invention in the above medium, which also contains 5% DMSO, are added to plate wells containing infected macrophages. At the same time control compounds (miltefosine and amphotericin B) and DMSO are added to plates to serve as the positive and negative controls, respectively. After the compound addition, the plates are returned into incubator and cells infected with parasites are cultured for 5 days. At the end of cultivation, […] of 8% paraformaldehyde is added to plate wells and incubated for 15 min at room temperature. Following the incubation, the paraformaldehyde from plate wells is aspirated, and […] of PBS containing 0.2% Triton X-100 is added to wells. After 15 min incubation, the solution is aspirated from wells again, and replaced with Sybr® Green Dye solution in PBS (1:125,000 dilution). Infected cells are imaged with Evotec Opera high-content microscope, and the number of parasites in well is determined by counting parasite nuclei visualized by staining with Sybr® Green dye.

[3] = system: Leishmania donovani axenic amastigote; experiment: In vitro assay for growth inhibition of Leishmania donovani axenic amastigote (Cell TiterGlo luminescence); conditions: Leishmania donovani, L. donovani axenic amastigotes in vitro; read-out: L. donovani amastigotes EC50
How it was run: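 Compound-treated wells received 9600 axenic amastigotes in RPMI 1640-based medium at pH 5.5 (37 °C, 5% CO2). Growth measured as ATP luminescence (CellTiter-Glo) after 2-day incubation; DMSO and reference compounds served as controls.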

[4] = system: Trypanosoma cruzi amastigotes cultured in 3T3 fibroblast cells; experiment: Assay for growth inhibition of kinetoplastid parasite Trypanosoma cruzi (beta-galactosidase Tulahuen strain, CPRG readout); conditions: Trypanosoma cruzi, Fibroblast, T. cruzi amastigotes in 3T3 fibroblast cells; read-out: Buckner infectious T. cruzi EC50
How it was run: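 3T3 fibroblasts (1,000 cells/well) plated overnight, treated with compound in DMSO, then infected with 10,000 Lac-Z-expressing Tulahuen trypomastigotes. After 6 days, 0.6 mM CPRG with 0.6% NP-40 added for 2 h at room temperature; absorbance gives relative intracellular amastigote numbers. Benznidazole and nifurtimox serve as positive controls.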

| SMILES | EC50 ([1]; Trypanosoma brucei) [µM] | EC50 [2] [µM] | EC50 [3] [µM] | EC50 [4] [µM] | EC50 [1] [µM] |
| --- | --- | --- | --- | --- | --- |
| O=C(Nc1ccc(F)c(-n2cc3cc(N4CCOCC4)cnc3n2)c1)N1CC[C@@H](F)C1 [Compound 135, (3R)-3-fluoro-N-{4-fluoro-3-[5-(morpholin-4-yl)-2H-pyrazolo[3,4-b]pyridin-2-yl]phenyl}pyrrolidine-1-carboxamide] | < 0.023 | 0.0086 | 0.0046 | 0.0066 |  |
| CCC(C)(C)c1cnc2nn(-c3cc(NC(=O)N4CC(F)(F)C4)ccc3F)cc2c1 [Compound 35, 3,3-difluoro-N-{4-fluoro-3-[5-(2-methylbutan-2-yl)-2H-pyrazolo[3,4-b]pyridin-2-yl]phenyl}azetidine-1-carboxamide] | 0.85 | 0.52 | 0.58 | 0.38 |  |
| CC(C)OC(=O)Nc1cnc2nn(-c3cc(NC(=O)N4CC(F)C4)ccc3F)cc2c1 [Compound 168, Isopropyl (2-(2-fluoro-5-(3-fluoroazetidine-1-carboxamido)phenyl)-2H-pyrazolo[3,4-b]pyridin-5-yl)carbamate] | < 0.023 | 0.0082 | 0.0032 | 0.027 |  |
| O=C(Nc1ccc(F)c(-n2cc3cc(N4CC(C(F)(F)F)C4)cnc3n2)c1)N1CC(F)C1 [Compound 265, 3-fluoro-N-(4-fluoro-3-(5-(3-(trifluoromethyl)azetidin-1-yl)-2H-pyrazolo[3,4-b]pyridin-2-yl)phenyl)azetidine-1-carboxamide] | 0.001 | 0.004 | 0.003 | 0.002 |  |
| CC(C)c1cnc2nn(-c3cc(NC(=O)c4cc(Cl)ccc4F)ccc3F)cc2c1 [Compound 89, 5-chloro-2-fluoro-N-{4-fluoro-3-[5-(propan-2-yl)-2H-pyrazolo[3,4-b]pyridin-2-yl]phenyl}benzamide] | 0.033 | 0.27 | 0.47 | 0.032 |  |
| O=C(Nc1ccc(F)c(-n2cc3cc(N4C5CCC4COC5)cnc3n2)c1)N1CC(F)C1 [Compound 235, 3-fluoro-N-[4-fluoro-3-(5-{3-oxa-8-azabicyclo[3.2.1]octan-8-yl}-2H-pyrazolo[3,4-b]pyridin-2-yl)phenyl}azetidine-1-carboxamide] | 0.005 | 0.01 | 0.011 | 0.011 |  |
| O=C(Nc1ccc(F)c(-n2cc3cc(N4CCC4)cnc3n2)c1)N1CC[C@@H](F)C1 [Compound 149] | < 0.023 | 0.0079 | 0.011 | 0.0054 |  |
| Cc1nc(C2CC2)oc1C(=O)Nc1ccc(F)c(-n2cc3cc(C(C)C)cnc3n2)c1 [Compound 76, 2-cyclopropyl-N-{4-fluoro-3-[5-(propan-2-yl)-2H-pyrazolo[3,4-b]pyridin-2-yl]phenyl}-4-methyl-1,3-oxazole-5-carboxamide] | 0.48 | 0.93 | 1.1 | 0.41 |  |
| O=C(Nc1ccc(F)c(-n2cc3cc(N4CC(F)C4)cnc3n2)c1)N1CC(F)C1 [Compound 291, 3-fluoro-N-{4-fluoro-3-[5-(3-fluoroazetidin-1-yl)-2H-pyrazolo[3,4-b]pyridin-2-yl]phenyl}azetidine-1-carboxamide] |  | 0.005 | 0.01 | 0.005 | 0.005 |
| CC(C)c1cnc2nn(-c3cc(NC(=O)CC4CCC4)ccc3F)cc2c1 [Compound 216, 2-cyclobutyl-N-{4-fluoro-3-[5-(propan-2-yl)-2H-pyrazolo[3,4-b]pyridin-2-yl]phenyl}acetamide] | 0.62 | 4.67 | 3.7 | 0.435 |  |
| CCCC(C)c1cnc2nn(-c3cc(NC(=O)N4CC[C@@H](F)C4)ccc3F)cc2c1 (stereo partly drawn) [Compound 48, (3R)-3-fluoro-N-{4-fluoro-3-[5-(pentan-2-yl)-2H-pyrazolo[3,4-b]pyridin-2-yl]phenyl}pyrrolidine-1-carboxamide] | 0.05 | 0.33 | 0.35 | 0.29 |  |
